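Protocol summary: plate cells (96-well), add compound at 5 concentrations, incubate 48 h, interpolate endpoints linearly. GI50: concentration for 50% inhibition of growth.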 Active and inactive are the calls of the source. Rule as the data show it: active = GI50 up to about 1.1 µM and inactive = higher.

The values that follow come from ChEMBL document CHEMBL1201862, “PubChem BioAssay data set” (2004).

Common to all, as to assay: NCI-60 cell line screen, 48 h
The test system of test [1] is SK-OV-3.
For test [2], the system named is OVCAR-8.
The subject of test [3] is SN12C.
The test system of test [4] is HCT-15.
The test system of test [5] is MDA-MB-435.
Test [6] concerns OVCAR-3.
Test [7] relates to K562.
The test system of test [8] is DU-145.
The test system of test [9] is SK-MEL-2.
The subject of test [10] is RXF 393.
Test [11] deals with HCT-116.
Test [12] relates to A549.
In test [13] the test system is Malme-3M.
The subject of test [14] is HT-29.
Test [15] has as its system SW-620.
Test [16] relates to MOLT-4.
In test [17] the test system is SF-268.
Test [18] concerns SF-539.
Test [19] has as its system A498.
For test [20], the system named is MDA-MB-231.

Turning to `COc1ccc(CCN(C)C(=O)CC(C#N)(c2ccccc2)c2ccc(OC)c(OC)c2)cc1OC` (stereo unspecified), the GI50 was > 100 µM (inactive) in [1]; > 100 µM (inactive) in test [2]; > 100 µM (inactive) in [3]; over 100 µM in test [4]; > 100 µM (inactive) in test [5]; > 100 µM (inactive) in test [6]. Moreover, the GI50 was > 42.2 µM (inactive) in test [7]; > 100 µM (inactive) in test [8]; > 100 µM (inactive) in test [9]; > 86.5 µM (inactive) in [10]; > 100 µM (inactive) in [11]; > 100 µM (inactive) in test [12]. The GI50 is > 100 µM (inactive) in test [13]; > 100 µM (inactive) in test [14]; > 100 µM (inactive) in test [15]; > 45.9 µM (inactive) in [16]; > 100 µM (inactive) in test [17]; > 100 µM (inactive) in test [18]. Besides, the GI50 in test [19] is > 100 µM (inactive).
Take `O=C1CCCc2cc3c(cc21)CC1(Cc2ccccc2C1)C3`: the GI50 in test [1] was 5.11 µM (inactive); in test [2] it was 6.28 µM (inactive); in test [3], 4.52 µM (inactive); in test [4], 3.59 µM; in [20] it was 8.18 µM (inactive); in [5], 1.91 µM (inactive). The GI50 in [6] is 2.56 µM (inactive); in [7], 1.86 µM (inactive); in test [9] it was 15 µM (inactive); in test [10], 8.83 µM (inactive); in test [11], 3.9 µM (inactive); in [12], 6.17 µM (inactive). The GI50 is 9.79 µM (inactive) in test [13]; 2.8 µM (inactive) in test [14]; 3.52 µM (inactive) in test [16]; 3.89 µM (inactive) in test [18]; 9.12 µM (inactive) in test [19].
Take `CSC1=NS(=O)(=O)c2cc(C(=O)NN(C)C(=O)c3cc4c(cc3Cl)SC(SC)=NS4(=O)=O)c(Cl)cc2S1`: the GI50 in test [1] was > 10 µM (inactive); in [2] it was > 10 µM (inactive); in test [3], > 10 µM (inactive); in test [4], over 10 µM; in test [6], > 10 µM (inactive); in [7], > 10 µM (inactive). For the same compound, the GI50 in [8], in test [9], in [10], in test [11], in [12] and in test [13] was > 10 µM (inactive) in each case. The GI50 in test [14], in test [15], in test [16], in test [17], in test [18] and in [19] was > 10 µM (inactive) throughout.
For the compound `CCc1nc2c([nH]1)C(=O)c1ccccc1C2=O`, the GI50 was > 100 µM (inactive) in [1]; 57.9 µM (inactive) in test [2]; 37.2 µM (inactive) in test [3]; 51.3 µM in test [4]; 23 µM (inactive) in test [6]; 55 µM (inactive) in test [7]. The GI50 in test [9] was > 100 µM (inactive); in [10], > 100 µM (inactive); in test [11] it was 27.2 µM (inactive); in test [12], 52.8 µM (inactive); in test [13] it was 24.8 µM (inactive); in [14], 43.2 µM (inactive). Besides, the GI50 in [15] is 43.4 µM (inactive); in [16] it was 46.3 µM (inactive); in [17], 70 µM (inactive); in test [18], 48.9 µM (inactive); in [19], > 100 µM (inactive).
Turning to `COc1cc(/C=C/C(=O)O)ccc1O` [FERULATE], the GI50 in test [2] was > 100 µM (inactive); in test [3] it was > 100 µM (inactive); in test [4], over 100 µM; in test [20] it was > 100 µM (inactive); in test [5], > 100 µM (inactive); in test [6] it was > 100 µM (inactive). Besides, the GI50 in test [7], in [8], in test [9], in test [11], in test [12] and in test [13] was > 100 µM (inactive) throughout. Moreover, the GI50 in [14], in test [15], in [16], in test [17] and in test [18] was > 100 µM (inactive) each time.
On to `O=C1Nc2c(Cl)cc(Cl)cc2/C1=N/NC(=O)c1ccncc1`, for which the GI50 in [1] is 25.6 µM (inactive); in [2], 20.6 µM (inactive); in test [3] it was 26.2 µM (inactive); in test [4] it was 32.1 µM; in test [20], 17.3 µM (inactive); in test [5] it was 16.5 µM (inactive). In addition, the GI50 in test [6] was 15.5 µM (inactive); in [7] it was 27.9 µM (inactive); in test [9], 19 µM (inactive); in test [10] it was 20 µM (inactive); in test [11], 19.1 µM (inactive); in test [12], > 100 µM (inactive). For the same compound, the GI50 in test [13] is 16.9 µM (inactive); in [14] it was 27.4 µM (inactive); in [15], 28.4 µM (inactive); in test [16], 25.2 µM (inactive); in test [18] it was 21.6 µM (inactive); in test [19] it was > 100 µM (inactive).
In the case of `Cc1cc2c(cc1C)[n+]([O-])c(C(=O)C/C(=N/NC(=O)c1ccccc1O)C(=O)Nc1ccccc1C(C)C)c(C)[n+]2[O-]`, the GI50 in [1] was > 100 µM (inactive); in test [2] it was > 100 µM (inactive); in [3], > 100 µM (inactive); in test [4] it was over 100 µM; in [6], 37.2 µM (inactive); in test [7], 31.6 µM (inactive). Besides, the GI50 in test [9], in test [10], in test [11], in test [12], in test [13] and in test [14] was > 100 µM (inactive) in each case. The GI50 in test [15] is 97.1 µM (inactive); in test [16] it was 21.9 µM (inactive); in [17] it was 68.2 µM (inactive); in test [18], > 100 µM (inactive); in test [19] it was > 100 µM (inactive).
Consider `CC1=C(C)CC2(CCCCC2=O)[S+]([O-])C1` (stereo unspecified), for which the GI50 in test [1] is > 100 µM (inactive); in test [2], > 100 µM (inactive); in [3], > 100 µM (inactive); in [4], over 100 µM; in test [6] it was > 100 µM (inactive); in [7] it was > 100 µM (inactive). Besides, the GI50 in test [9], in [10], in test [11], in test [12], in [13] and in test [14] was > 100 µM (inactive) each time. Also, the GI50 in test [15], in test [16], in test [17], in test [18] and in test [19] was > 100 µM (inactive) in each case.
For `CCN(CC)CCC(=O)/C=C/c1ccc(Cl)c(Cl)c1`, the GI50 in test [2] is 4.21 µM (inactive); in test [3] it was 1.86 µM (inactive); in [4], 3.66 µM; in test [20], 3.48 µM (inactive); in test [5] it was 3.21 µM (inactive); in [6], 8.61 µM (inactive). For the same compound, the GI50 in test [7] was 3.68 µM (inactive); in test [8] it was > 10 µM (inactive); in test [9], 8.55 µM (inactive); in [11] it was 1.71 µM (inactive); in test [12] it was 2.78 µM (inactive); in test [13], 3.77 µM (inactive). The GI50 is 2.55 µM (inactive) in test [15], 3.01 µM (inactive) in test [16] and 3.05 µM (inactive) in [17].
As to `Cc1cc(C)c2c(c1)N[S@@](=O)S2`, the GI50 in test [1] was 31.4 µM (inactive); in test [2] it was 17.7 µM (inactive); in test [3] it was 19.4 µM (inactive); in test [4], 16.5 µM; in test [6], 18.3 µM (inactive); in test [7] it was 26.4 µM (inactive). Moreover, the GI50 in test [9] is 22.3 µM (inactive); in test [10], 10.6 µM (inactive); in test [11] it was 17.1 µM (inactive); in test [12] it was 27.9 µM (inactive); in test [13], 25.2 µM (inactive); in test [14], 20.2 µM (inactive). Further, the GI50 in test [15] was 3.74 µM (inactive); in test [16] it was 25.8 µM (inactive); in [17], 17.9 µM (inactive); in [18], 26.1 µM (inactive); in [19], > 100 µM (inactive).
With `C/C(CC(=O)Nc1ccc(NC(=O)/C(C)=N/NS(=O)(=O)c2ccc(C)cc2)cc1)=N\NS(=O)(=O)c1ccc(C)cc1`, the GI50 in test [1] is > 100 µM (inactive); in test [2], > 100 µM (inactive); in test [3], > 100 µM (inactive); in test [4], over 100 µM; in test [6] it was > 100 µM (inactive); in [7] it was > 100 µM (inactive). Besides, the GI50 in [9], in test [10], in test [11], in test [12], in test [13] and in [14] was > 100 µM (inactive) each time. Also, the GI50 in test [15], in test [16], in [17], in [18] and in test [19] was > 100 µM (inactive) in each case.
In the case of `Nc1c2ccccc2nc2nccnc12`, the GI50 is > 100 µM (inactive) in [1]; > 100 µM (inactive) in [2]; > 100 µM (inactive) in [3]; over 100 µM in [4]; > 100 µM (inactive) in test [6]; > 100 µM (inactive) in [7]. Further, the GI50 in test [9], in [10], in test [11], in test [12], in [13] and in test [14] was > 100 µM (inactive) in each case. Besides, the GI50 in test [15], in [16], in test [17], in [18] and in test [19] was > 100 µM (inactive) throughout.
